ChEMBL document CHEMBL3045431, “Stability of DNA upon interaction with dimethyltin dichloride” (Med Chem Res, 2007)
Calls of active or inactive are those of the source. The calls are words filed in the database; no cut-off is given here.

Experiments:
[1] = Binding affinity to DNA assessed as dissociation constant at < 2 mM by isothermal spectrophotometric titration method
[2] = Binding affinity to DNA assessed as association constant at < 2 mM by isothermal spectrophotometric titration method
DNA [3] = assay: Binding affinity to Bos taurus (calf) thymus DNA at 13.6 mM by isothermal spectrophotometric titration method; type: nucleic-acid assay
DNA [4] = assay: Binding affinity to Bos taurus (calf) thymus DNA at 9 mM by isothermal spectrophotometric titration method; type: nucleic-acid assay
DNA [5] = assay: Binding affinity to Bos taurus (calf) thymus DNA at 0.5 mM by isothermal spectrophotometric titration method; type: nucleic-acid assay
DNA [6] = assay: Binding affinity to Bos taurus (calf) thymus DNA at 2 mM by isothermal spectrophotometric titration method; type: nucleic-acid assay
DNA [7] = assay: Thermal stabilization of Bos taurus (calf) thymus DNA assessed as change in melting temperature at 2 mM by differential scanning calometric method; type: nucleic-acid assay
DNA [8] = assay: Thermal stabilization of Bos taurus (calf) thymus DNA assessed as change in melting temperature at 13.6 mM by differential scanning calometric method; type: nucleic-acid assay
DNA [9] = assay: Binding affinity to Bos taurus (calf) thymus DNA at 11 mM by isothermal spectrophotometric titration method; type: nucleic-acid assay

DICHLORODIMETHYLSTANNANE
Kd [1]: 281 µM

[sequence]
Ka [2]: 3.56 ×10³ /M
K (DNA [3]): 0.143 ×10³ /M
K (DNA [4]): 0.123 ×10³ /M
K (DNA [5]): 3.59 ×10³ /M
K (DNA [6]): 3.53 ×10³ /M
Activity (DNA [7]): Active
Tm (DNA [8]): 70.2 °C
K (DNA [9]): 0.125 ×10³ /M
